Experimental data from US20140348748A1, “BETA-AMYLOID IMAGING AGENTS, METHODS OF MANUFACTURE, AND METHODS OF USE THEREOF” (priority 2011, published 2014).

How the values were obtained:
[1] = test system: amyloid plaques in AD brain tissue slides; experiment: Autoradiography on post mortem human brain tissue slides; type: binding; conditions: for binding in AD brain tissue slides (autoradiography): amyloid-loaded gray matter region; for radioactivity on healthy brain tissue (autoradiography): normal control brain tissue slides
Description: Coronal sections of cerebrum from a confirmed case of AD (person, postmortem interval (PMI) 47.5 hours) and a normal control (person, PMI 28.5 hours) were frozen rapidly in an equal mixture of dry ice and isopentane, sealed in a plastic bag and stored at −76° C. before sectioning. Frozen blocks of the medial temporal lobe (hippocampal region) were sectioned at a thickness of 14 μm, mounted on gelatin-coated glass slides, dried and stored under desiccant at −76° C. Before use, slide-mounted tissue sections were removed from the freezer, thawed at room temperature for 20 min, and air-dried. Compounds 1.6, 1.5 and 1.4 (1.0 mg) were dissolved in DMSO (3.529 mL) resulting in a stock solution of 1 mM, which was then further diluted with DMSO to 0.1 mM and then diluted with PBS to 1 μM. The AD tissue and normal tissue slides were pretreated with either a stock solution of Compounds 1.6, 1.5, and 1.4 or PBS for 20 min at room temperature. All slides were incubated for 20 min at room temperature in [^11C]PIB formulation solution (0.3 mCi). They were then dipped in ethanol for 5 min. The slides were dried on a hot plate with a stream of cold air and placed in a cassette with the exposed sides facing up. The phosphor imaging plate was held with the blue side down. The entire cassette was placed in the dark at room temperature overnight for ^11C-labeling. Digital autoradiography was acquired using a FUJI BAS 5000 phosphorimager (FUJI, Tokyo, Japan) with a resolution of 25 μm.

[2] = target: beta-amyloid plaques in AD brain tissue (Homo sapiens, UniProt P05067); experiment: In vitro binding assay: competitive displacement of [3H]6-OH-BTA-1 in AD brain homogenate; conditions: for Ki: [3H]6-OH-BTA-1 as reference radioligand, AD brain tissue
Description: AD brain tissue was homogenized at 1:500 in PBS, and 800 μL suspension was used in each tube. [^3H]6-OH-BTA-1 with a concentration of 1 mCi/mL stock solution was diluted using ethanol to give an intermediate solution of 1 μCi/100 μL, which was further diluted using PBS to result in a dilute stock solution of 2.7×10^−2 μCi/100 μL, and 100 μL was used in each tube (2 vials with 100 μL of [^3H]6-OH-BTA-1 each and scintillation fluid as references). Cold 6-OH-BTA-1 or other displacer was dissolved in ethanol to result in a stock solution of 1×10^−3 M, which was further diluted using PBS or ethanol to result in solutions with concentrations ranging from 1×10^−5 to 10^−10 M, and 100 μL was used in each tube. After assembly, the tubes were vortexed, and incubated for 3 hrs at room temperature. After separation using a cell harvester, the filter paper (GF/B filter paper pretreated with 0.5% polyimine solution) was washed with 10% ethanol in PBS (3×3 mL). The filters were placed into 20 mL glass vials and 10 mL scintillation fluid each was added. After overnight incubation, the samples were counted. The data were analyzed using GraphPad Prism 4 or KaleidaGraph 3.6. […]
Some lipophilic ligands required ethanol in the medium to increase their solubility and to effect displacement of reference radioligand. […] This displacement curve was also analyzed using a homologous displacement mathematical model to extract the Bmax of the amyloid plaques. The measured Bmax is linear with the amount of amyloid used in the experiment. The ratio between Bmax and the amount of Aβ1-42 monomer measured by ELISA is about 1:2, somewhat less than that reported previously. […]
In this table, Ki is a measure (in nM units) of the binding affinity of the compound toward beta-amyloid plaques in AD brain tissue, measured through a competitive radioligand displacement in vitro assay using [^3H]6-OH-BTA-1 as the reference radioligand. The lipophilicity of the compound is represented by c Log D7.4 which is calculated through a software package (ACD/Log D version 8.0) at pH=7.4, a close mimic of physiological conditions. […]

[3] = Evaluation of radioligands in monkey in vivo with PET; parameters: species or system rhesus monkey; conditions: for brain uptake and washout (PET time-activity curves): intravenous, 18F-labelled
Description: A male rhesus monkey (15 kg) was initially immobilized with ketamine (15 mg/kg) and subsequently anesthetized with isoflurane (1.5%) for the duration of the experiment. The monkey was placed prone in the PET camera (HRRT, Siemens/CPS, Knoxyille, Tenn., USA). A fixation device was used to secure the monkey's head during scanning. A urinary catheter was inserted and clamped so that the activity overlaying the bladder represented the total urinary excretion during the scan. Electrocardiogram, body temperature, heart and respiration rates were measured throughout the experiment. Body temperature was controlled and monitored by a forced-air temperature management unit (Bair Hugger Model 505; Arizant Healthcare Inc.; MN, USA). The scanner consisted of eight flat panel detectors with a transaxial and axial coverage of 31.2 cm and 25.2 cm, respectively. The scanner is also equipped with dual-layered phoswich detector allowing depth-of-interaction. Dynamic PET scans were acquired in 64-bit list mode format, following the intravenous administration of Compound 1.6 (2.9 mCi). The scan lasted for 2 hours containing 33 frames with duration ranging from 30 seconds to 5 minutes. Data were reconstructed into a 256×256×207 image matrix (voxel size 1.21×1.21×1.23 mm), using a 3D list mode OSEM algorithm. The reconstructed image resolution was 2.5 mm. Transmission scan was acquired with a rotating ^137Cs point source for 6 minutes and used to correct for attenuation. A model-based scatter correction was applied. Tomographic images were analyzed with PMOD 2.6. Time activity curves (FIGS. 4-6) were calculated in % SUV for volume of interest (VOIs), defined by co-registration with MRI (see below), and compared for uptake and washout between different brain regions.
Co-registration of PET Data with MRI. All frames of the original reconstructed PET data were summed and then co-registered to a T1-weighted magnetic resonance (MR) image acquired separately on a 1.5 T Signa MR scanner (GE Medical Systems) with image analysis software MEDx (Sensor Systems Inc.; Sterling, Va., U.S.A.). The summed PET image was fused with the co-registered MR image with an image fusion tool in PMOD. Several VOIs for the source organs were then manually defined on this fused image with anatomical structures identified on the MR image.

[4] = after intravenous injection into rodent or monkey; cited from earlier work

Sequence of beta-amyloid plaques in AD brain tissue (P05067 672-711 limits assumed): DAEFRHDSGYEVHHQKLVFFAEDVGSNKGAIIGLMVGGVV

| SMILES | binding in AD brain tissue slides (autoradiography) [1] | radioactivity on healthy brain tissue (autoradiography) [1] | Ki [2] [nM] | brain uptake and washout (PET time-activity curves) ([3]; normal male rhesus monkey) | SUV (standardized uptake value) of radioactivity in brain [4] | other results |
| --- | --- | --- | --- | --- | --- | --- |
| CNc1ccc(-c2nc3ccc(OC)cc3s2)nc1F [Compound 1.5, 2-Fluoro-6-(6-methoxybenzo[d]thiazol-2-yl)-N-methylpyridin-3-amine] | clear displaceable binding | no radioactivity was observed | 10 | entered the brain very well and washed out fast | – | – |
| CNc1ccc(-c2nc3ccc(O)cc3s2)nc1F [Compound 1.6, 2-(6-Fluoro-5-(methylamino)pyridin-2-yl)benzo[d]thiazol-6-ol] | clear displaceable binding | no radioactivity was observed | 20 | entered the brain very well and washed out fast | – | binding with amyloid plaques from autoradiography ([1]; summary statement): specific binding; pharmacokinetics compared among the three radioligands ([3]; normal male rhesus monkey, PET): most promising pharmacokinetics; time to uniform distribution of radioactivity after injection ([3]; normal monkey, PET): less than 1 hour |
| CN(CCF)c1ccc(-c2cn3cc(I)ccc3n2)cc1 [[^18F]FEM-IMPY, N-(2-fluoroethyl)-4-(6-iodo-H-imidazo[1,2-a]pyridin-2-yl)-N-methylbenzeneamine] | – | – | – | – | about 160 % I.D. kg/g | – |
| CN(CCC[18F])c1ccc(-c2cn3cc(I)ccc3n2)cc1 [[^18F]FPM-IMPY] | – | – | – | – | about 160 % I.D. kg/g | – |
| CNc1ccc(-c2nc3ccc(O)cc3s2)cc1 [Compound 6-OH-BTA-1, 2-[4-(methylamino)phenyl]-6-hydroxybenzothiazole, reference compound] | – | – | – | – | – | displacement of reference radioligand ([2]; [3H]6-OH-BTA-1 displaced by non-radioactive ligand, isolated amyloid plaques): > 95% |
